We go through 1 compound from patent US6538037B2, “Methods for preparation and use of 1α,24(S)-dihydroxyvitamin D2” (Bone Care International, Inc., priority 1991, dated 2003).

Data set [1] is described as follows: Blood metabolite levels in osteoporotic women administered 1α-OH-D2. The format is in vivo, human. The method, then: An increase in the production of 1α,24(S)-(OH)2D2 relative to 1α,25-(OH)2D2 has also been observed by the present inventors in human females who received 1α-OH-D2 as part of an investigation of that drug for the treatment of osteoporosis. Following either a single dose of 2 μg of 1α-OH-D2 or daily doses of 8 μg/day for one week, blood was collected and analyzed for the metabolites 1α,24(S)-(OH)2D2 and 1α,25-(OH)2D2. Lipid was extracted from the blood, and the metabolites were purified by HPLC using standard methods and quantified with the radioreceptor assay produced by Incstar (Stillwater, Minn.). One day after a single 2 μg dose, the level of 1α,24(S)-(OH)2D2 was undetectable with the 1α,25-(OH)2D2 level being approximately 11 pg/ml. In contrast, one day following the last dose of 8 μg, the level of 1α,24(S)-(OH)2D2 averaged 9 pg/mL with the 1α,25-(OH)2D2 level averaging 30 pg/mL.

Data set [2] is described as follows: Dose ranging study in postmenopausal osteoporotic women. To be noted: oral 0.5 to 8.0 μg/day, five weeks. The format is in vivo, human. The method, then: Twenty postmenopausal osteoporotic women are enrolled in an open label study.
In admission to the study, all patients receive instruction on selecting a daily diet containing 400 to 600 mg of calcium. Compliance to this diet is verified at weekly intervals by 24-hour food records and by interviews with each patient.
All patients complete a one-week baseline period, a five-week treatment period, and a one-week post-treatment observation period. During the treatment period, patients orally self-administer 1α,24(S)-dihydroxyvitamin D2 at an initial dose of 0.5 μg/day for the first week, and at successively higher doses of 1.0, 2.0, 4.0, and 8.0 μg/day in each of the following four weeks. All doses are administered before breakfast.
Blood and urine chemistries are monitored on a weekly basis throughout the study. Key blood chemistries include fasting serum levels of calcium, phosphorus, osteocalcin, creatinine, and blood urea nitrogen. Key urine chemistries include 24-hour excretion of calcium, phosphorus, and creatinine.

Regarding `C=C1/C(=C\C=C2/CCC[C@]3(C)[C@@H]([C@H](C)/C=C/[C@@](C)(O)C(C)C)CC[C@@H]23)C[C@@H](O)C[C@@H]1O` [1α,24(S)-(OH)2D2, 1α,24(S)-dihydroxyvitamin D2], in data set [1] (one day after a single 2 μg dose of 1α-OH-D2), the “blood level of metabolite” value was “undetectable”. For the same compound, in data set [1] (one day following the last dose of 8 μg/day 1α-OH-D2 for one week), the “blood level of metabolite (average)” value was found to be 9 pg/mL. Also, in data set [2], the “24-hour urinary calcium levels” value was “modest increases in 24-hour urinary calcium levels”; the “kidney function (creatinine clearance, blood urea nitrogen)” value is listed as “does not adversely affect kidney function”; the “routinely monitored serum parameters” value is “no effect on any routinely monitored serum parameters”; the serum osteocalcin levels entry is listed as “increases in serum osteocalcin levels”. In addition, the “urinary excretion of hydroxyproline” value in data set [2] is “nor does it increase urinary excretion of hydroxyproline”.
